Several values for one entry are separate records, joined by “and”; a condition that tells them apart may be missing. Equal entries are not always repeated.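 Five concentrations, 48 hours, 96-well plates. GI50 marks 50% less growth. The concentration for full growth arrest is given as TGI.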
Columns and labels:
Assay in all cases: inhibition of tumour cell growth, NCI panel, 48 h
COLO 205 colon = test system: COLO 205 colon
PC-3 prostate = test system: PC-3 prostate
HCT-116 colon = test system: HCT-116 colon
MDA-MB-435 = test system: MDA-MB-435
HT29 colon = test system: HT29 colon
HL-60(TB) leukemia = test system: HL-60(TB) leukemia
SF-539 CNS = test system: SF-539 CNS
NCI-H460 lung = test system: NCI-H460 lung
HOP-62 NSCLC = test system: HOP-62 NSCLC
UACC-257 melanoma = test system: UACC-257 melanoma
HS 578T breast = test system: HS 578T breast
HCT-15 colon = test system: HCT-15 colon
SK-MEL-28 melanoma = test system: SK-MEL-28 melanoma

Compound | TGI (COLO 205 colon) [µM] | TGI (PC-3 prostate) [µM] | TGI (HCT-116 colon) [µM] | TGI (MDA-MB-435) [µM] | TGI (HT29 colon) [µM] | TGI (HL-60(TB) leukemia) [µM] | TGI (SF-539 CNS) [µM] | TGI (NCI-H460 lung) [µM] | TGI (HOP-62 NSCLC) [µM] | TGI (UACC-257 melanoma) [µM] | TGI (HS 578T breast) [µM] | TGI (HCT-15 colon) [µM] | TGI (SK-MEL-28 melanoma) [µM] | GI50 (PC-3 prostate) [µM] | GI50 (HCT-116 colon) | GI50 (HT29 colon) | GI50 (HL-60(TB) leukemia) [µM] | GI50 (NCI-H460 lung) [µM] | GI50 (HCT-15 colon) [µM] | GI50 (SK-MEL-28 melanoma) [µM]
CCOC(=O)C1(C(=O)OCC)[C@@H](c2ccccc2)C2=NO[C@@H]3CCC[C@H]1[C@H]23 | > 100 | > 100 | > 100 | 53.6 | > 100 | > 100 | > 100 | > 100 | > 100 | 79.8 | > 100 | > 100 | > 100 |  |  |  |  |  |  | 
Clc1cc(Cl)cc(N=C/C=C/Nc2cc(Cl)cc(Cl)c2)c1 | 30.2 | 36.6 | 30.1 | 35.9 | 28.5 | 49.7 | 58.9 | 43.5 | 51.8 | > 100 | > 100 | 30.6 | 47 |  |  |  |  |  |  | 
c1ccc2oc(-c3ccc(-c4nc5ccccc5o4)c4c3CC4)nc2c1 | > 100 | > 100 | > 100 | > 100 | > 100 | > 100 | > 100 | > 100 | > 100 | > 100 | > 100 | > 100 | > 100 |  |  |  |  |  |  | 
O=c1[nH]nc(Cc2ccccc2)n1C1CCCC1 | > 100 | > 100 | > 100 | > 100 | > 100 | > 100 | > 100 | > 100 | > 100 | > 100 | > 100 | > 100 | > 100 |  |  |  |  |  |  | 
N#Cc1nc(-c2ccco2)oc1N | > 10 | > 10 | > 10 | > 10 | > 10 | > 10 | > 10 | > 10 | > 10 | > 10 | > 10 | > 10 | > 10 |  |  |  |  |  |  | 
Cc1cc(N(CCC#N)CCC#N)ccc1/C(N=Nc1cccc(Cl)c1)=N/NC(=O)c1cc(Cl)ccc1O | 17.8 | 46.2 | 44.4 | > 100 | 44.2 | 9.06 | > 100 | 31.9 | 62 | 31.2 | > 100 | 24.4 | 49.9 |  |  |  |  |  |  | 
c1cc2nnc1SCCCSc1ccc(nn1)SCCCS2 | > 81.3 | > 100 | > 54.1 | > 100 | > 100 | > 92.4 | > 93.9 | > 100 | > 93.1 | > 71.6 | 99.2 | > 100 | > 100 |  |  |  |  |  |  | 
COc1cc2c(c(O)c1OC)C(=O)[C@@H]1CCC(=O)N1C2 | > 100 | > 100 | > 100 | > 100 | > 100 | > 100 | > 100 | > 100 | > 100 | > 100 | > 100 | > 100 | > 100 |  |  |  |  |  |  | 
O=[N+]([O-])c1ccc(OC2CC3C4C=CC3C2C4)c([N+](=O)[O-])c1 (stereo not drawn) | > 100 | > 100 | > 100 | > 100 | > 100 | > 100 | > 100 | > 100 | > 100 | > 100 | > 100 | > 100 | > 100 | > 100 | 66.2 µM and > 31.6 µM | > 100 µM and 30 µM | 69.7 | > 100 | > 100 | > 100
N[C@H](C(=O)O)[C@@H]1CC(Br)=NO1 | > 100 | > 100 | > 100 | > 100 | > 100 | > 100 | > 100 | > 100 | > 100 | > 100 | > 100 | > 100 | > 100 |  |  |  |  |  |  | 
COC(=O)C(CCSC)NC(=O)CNC(=O)CSc1nnc(COc2ccc(Cl)cc2)n1-c1ccccc1 (stereo not drawn) | 33.6 | 30.2 | 30.5 | 37.9 | 31.5 | 38.3 | 35 | 31.7 | 34.9 | 32.2 | 53.1 | 37.8 | 33.3 |  |  |  |  |  |  | 
CC(=O)OCC(=O)O[C@@H]1[C@H]2[C@@H](OC(=O)c3ccccc3)[C@@H](C)C[C@]2(O)[C@H](OC(C)=O)[C@@]2(C)C(OC(C)=O)[C@]1(OC(C)=O)C[C@H]1C(=O)C(C)(C)C[C@@H]12 (stereo partly drawn) | > 50 | > 50 | > 50 | > 50 | > 50 | > 50 | > 50 | > 50 | > 50 | > 50 | > 50 | > 50 | > 50 |  |  |  |  |  |  | 
